Here are results for two compounds from patent US4727080A, “1-substituted derivatives of 6-fluoro-7-(pyrrol-1-yl)-1,4-dihydro-4-oxoquinoline-3-carboxylic acid, their preparation and their application as drugs” (Provesan S.A., priority 1984, dated 1988).

The test system of data set [1] is Shigella flexnerii. The experiment in a line: "In vitro" MIC, Shigella flexnerii. As to conditions: 20 h, read-out: "In vitro" MIC. The class given is cell-based. The procedure: (§1) Antimicrobial pharmacological activity (G. L. Daquet and Y. A. Chabbect, Techniques en bacteriologie (Techniques in bacteriology), vol. 3, Flammarion Medecine-Sciences, Paris, 1972, and W. B. Hugo and A. D. Rusell, Pharmaceutical Microbiology, Blackwell Scientific Publications, London (1977).
(§2) A streak culture of each of the microorganisms is formed in tubes of antibiotics agar no. 1 and incubated for 20 hours at 37° C. A culture loop is then taken and a culture is formed in a tryptone-soya broth and incubated for 20 hours at 37° C. The resulting culture is diluted to 1/4 with Ringer's physiological solution to give a standardized suspension of 10^5 ufc/ml for each organism.
(§3) Starting from a solution of 1000 μg/ml in 0.1N NaOH, each product is diluted successively in dextrose agar (melted beforehand and kept at 50° C.) to give the following concentrations: 64-32-16-8-4-2-1-0.5-0.25-0.125 μg of derivative/ml of medium.
(§4) After this, each concentration of each product is divided up into Petri dishes of 10 cm diameter at a rate of 10 ml of medium per dish and using as many dishes as there are microorganisms to be tested.
(§5) Once the medium has cooled, the dishes are treated with the inoculations at a rate of 0.4 ml of inoculation per dish. They are spread out with a Drigalski loop and the supernatant is collected. The inoculated dishes are incubated at 37° C. for 20 hours.

The subject of data set [2] is Pseudomonas aeruginosa 25115. The experiment in a line: "In vitro" MIC, Pseudomonas aeruginosa 25115. The class given is cell-based. Particulars: Pseudomonas aeruginosa 25115; dextrose agar, 37° C., 20 hours; read-out: "In vitro" MIC. The method, then:
as §1
Pseudomonas aeruginosa 25115
as §2, §3, §4, §5

Data set [3] concerns Citrobacter freundii ATCC 11606. The data set can be described thus: "In vitro" MIC, Citrobacter freundii. Format: cell-based. As to conditions: ATCC11606; Citrobacter freundii ATCC 11606; dextrose agar, 37° C., 20 hours; read-out: "In vitro" MIC. The method, then:
as §1
Citrobacter freundii ATCC 11606
as §2, §3, §4, §5

In data set [4] the test system is Escherichia coli R-1513. The data set can be described thus: "In vitro" MIC, Escherichia coli R-1513. Format: cell-based. Particulars: R1513; Escherichia coli R-1513; dextrose agar, 37° C., 20 hours; read-out: "In vitro" MIC. The procedure:
as §1, §2, §3, §4, §5

In data set [5] the test system is Enterobacter aerogenes ATCC 15038. The experiment in a line: "In vitro" MIC, Enterobacter aerogenes. The class given is cell-based. As to conditions: Klebsiella aerogenes, ATCC15038; Enterobacter aerogenes ATCC 15038; dextrose agar, 37° C., 20 hours; read-out: "In vitro" MIC. The procedure:
as §1
Enterobacter aerogenes ATCC 15038
as §2, §3, §4, §5

Data set [6] deals with Proteus morganii CHSP-16. The experiment in a line: "In vitro" MIC, Proteus morganii. The class given is cell-based. As to conditions: Morganella morganii, CHSP16; Proteus morganii CHSP-16; dextrose agar, 37° C., 20 hours; read-out: "In vitro" MIC. The procedure:
as §1, §2, §3, §4, §5

Data set [7] has as its system Gram-positive cocci. The data set can be described thus: "In vitro" antimicrobial activity compared with nalidixic acid, Gram-positive cocci. Format: cell-based. The procedure:
as §1, §2, §3, §4, §5

For data set [8], the system named is Enterobacter cloacae CHSP-20. The experiment in a line: "In vitro" MIC, Enterobacter cloacae. Format: cell-based. As to conditions: CHSP20; Enterobacter cloacae CHSP-20; dextrose agar, 37° C., 20 hours; read-out: "In vitro" MIC. The procedure:
as §1
Enterobacter cloacae CHSP-20
as §2, §3, §4, §5

The test system of data set [9] is Sarcina lutea ATCC 9341. The data set can be described thus: "In vitro" MIC, Sarcina lutea. Format: cell-based. Particulars: Micrococcus luteus, ATCC9341; Sarcina lutea ATCC 9341; dextrose agar, 37° C., 20 hours; read-out: "In vitro" MIC. The method, then:
as §1, §2, §3, §4, §5

Data set [10] deals with Klebsiella pneumoniae ATCC 10031. The experiment in a line: "In vitro" MIC, Klebsiella pneumoniae. The class given is cell-based. As to conditions: ATCC10031; Klebsiella pneumoniae ATCC 10031; dextrose agar, 37° C., 20 hours; read-out: "In vitro" MIC. The method, then: as §1
Klebsiella pneumoniae ATCC 10031
as §2, §3, §4, §5

For data set [11], the system named is Proteus mirabilis ATCC 4675. The experiment in a line: "In vitro" MIC, Proteus mirabilis. Format: cell-based. Particulars: ATCC4675; Proteus mirabilis ATCC 4675; dextrose agar, 37° C., 20 hours; read-out: "In vitro" MIC. The procedure: as §1
Proteus mirabilis ATCC 4675
as §2, §3, §4, §5

Data set [12] deals with Micrococcus flavus ATCC 10240. The data set can be described thus: "In vitro" MIC, Micrococcus flavus. The class given is cell-based. As to conditions: ATCC10240; Micrococcus flavus ATCC 10240; dextrose agar, 37° C., 20 hours; read-out: "In vitro" MIC. The method, then:
as §1
Micrococcus flavus ATTC 10240
as §2, §3, §4, §5

The test system of data set [13] is Enterobacteriaceae (Pseudomonas aeruginosa). The data set can be described thus: "In vitro" antimicrobial activity compared with nalidixic acid, Enterobacteriaceae (Pseudomonas aeruginosa). The class given is cell-based. The method, then: as §1, §2, §3, §4, §5
Data set [14] concerns Bacillus subtilis ATCC 6633. The experiment in a line: "In vitro" MIC, Bacillus subtilis. Particulars: ATCC6633; Bacillus subtilis ATCC 6633; dextrose agar, 37° C., 20 hours; read-out: "In vitro" MIC. The class given is cell-based. The procedure:
as §1
Bacillus subtilis ATCC 6633
as §2, §3, §4, §5

For data set [15], the system named is Escherichia coli ATCC 10536. The data set can be described thus: "In vitro" MIC, Escherichia coli ATCC 10536. The class given is cell-based. As to conditions: ATCC10536; Escherichia coli ATCC 10536; dextrose agar, 37° C., 20 hours; read-out: "In vitro" MIC. The procedure: as §1
Escherichia coli ATCC 10536
as §2, §3, §4, §5

In data set [16] the test system is Serratia marcescens ATTC 13880. The data set can be described thus: "In vitro" MIC, Serratia marcescens. The class given is cell-based. Particulars: ATTC13880; Serratia marcescens ATTC 13880; dextrose agar, 37° C., 20 hours; read-out: "In vitro" MIC. The method, then:
as §1
Serratia marcescens ATTC 13880
as §2, §3, §4, §5

The subject of data set [17] is Streptococcus faecalis ATCC 10541. The experiment in a line: "In vitro" MIC, Streptococcus faecalis. Format: cell-based. Particulars: Enterococcus faecalis, ATCC10541; Streptococcus faecalis ATCC 10541; dextrose agar, 37° C., 20 hours; read-out: "In vitro" MIC. The procedure:
as §1
Streptococcus faecalis ATCC 10541
as §2, §3, §4, §5

In data set [18] the test system is Pseudomonas aeruginosa ADSA 47. The data set can be described thus: "In vitro" MIC, Pseudomonas aeruginosa ADSA 47. The class given is cell-based. Particulars: ADSA47; Pseudomonas aeruginosa ADSA 47; dextrose agar, 37° C., 20 hours; read-out: "In vitro" MIC. The procedure:
as §1
Pseudomonas aeruginosa ADSA 47
as §2, §3, §4, §5

In data set [19] the test system is Salmonella typhimurium AMES 100. The experiment in a line: "In vitro" MIC, Salmonella typhimurium AMES 100. The class given is cell-based. As to conditions: Salmonella enterica; Salmonella typhimurium AMES 100; dextrose agar, 37° C., 20 hours; read-out: "In vitro" MIC. The procedure:
as §1
Salmonella typhimurium AMES 100
as §2, §3, §4, §5

For data set [20], the system named is Salmonella typhimurium AMES 98. The data set can be described thus: "In vitro" MIC, Salmonella typhimurium AMES 98. Format: cell-based. Particulars: Salmonella enterica; Salmonella typhimurium AMES 98; dextrose agar, 37° C., 20 hours; read-out: "In vitro" MIC. The method, then:
as §1
Salmonella typhimurium AMES 98
as §2, §3, §4, §5

Data set [21] relates to Staphylococcus aureus ATCC 25178. The data set can be described thus: "In vitro" MIC, Staphylococcus aureus ATCC 25178. The class given is cell-based. Particulars: ATCC25178; Staphylococcus aureus ATCC 25178; dextrose agar, 37° C., 20 hours; read-out: "In vitro" MIC. The method, then: as §1
Staphylococcus aureus ATCC 25178
as §2, §3, §4, §5

Data set [22] can be described thus: Acute toxicity to mice. As to conditions: mouse, in vivo, ip, suspension in 5% gum arabic, mortality over 7 days. The method, then:
The experimental animals used to determine this toxicity were albino mice of the C.F.L.P. strain and of both sexes, weighing between 19 and 25 grams. After an 18-hour fasting period with water "ad libitum", the derivatives forming the subject of the present invention are administered intraperitoneally as a suspension in 5% gum arabic. The volume of suspension administered was 0.4 ml/20 grams (20 ml/kg) in all cases, the concentration of the suspension being changed according to the dose administered.
One hour after administration of the derivatives, the animals are given a standard Panlab rat-mouse food. The mortality was observed over a period of 7 days. Differences in mortality between the sexes were not observed with any of the products.

For data set [23], the system named is Staphylococcus aureus ATCC 5488/23. The data set can be described thus: "In vitro" MIC, Staphylococcus aureus ATCC 5488/23. The class given is cell-based. As to conditions: ATCC5488; Staphylococcus aureus ATCC 5488/23; dextrose agar, 37° C., 20 hours; read-out: "In vitro" MIC. The method, then: as §1
Staphylococcus aureus ATCC 5488/23
as §2, §3, §4, §5

Converted amounts (≈) assume the structure as drawn.

For orientation: MIC means the smallest concentration in the dilution series that meets the test's criterion for growth inhibition. Broadly, the LD50 is the dose expected to kill half of the subjects tested. Turning to `O=C(O)c1cn(CCF)c2cc(-n3cccc3)c(F)cc2c1=O` [Example 6, 6-fluoro-7-(pyrrol-1-yl)-1-fluoroethyl-4-oxo-1,4-dihydroquinoline-3-carboxylate acid], the minimum inhibitory concentration (MIC) amounted to 1 µg/mL (≈ 3.14 µM) in data set [1]; 4 µg/mL (≈ 12.6 µM) in [2]; 1 µg/mL (≈ 3.14 µM) in [3]; 0.5 µg/mL (≈ 1.57 µM) in [4]; 1 µg/mL (≈ 3.14 µM) in [5]; 0.5 µg/mL (≈ 1.57 µM) in data set [6]. For the same compound, the MIC is 0.5 µg/mL (≈ 1.57 µM) in data set [8]; 2 µg/mL (≈ 6.28 µM) in data set [9]; 0.062 µg/mL (≈ 0.195 µM) in data set [10]; 1 µg/mL (≈ 3.14 µM) in data set [11]; 1 µg/mL (≈ 3.14 µM) in data set [12]; ≤ 0.031 µg/mL in data set [14]. In addition, the MIC in data set [15] is ≤ 0.031 µg/mL; in data set [16], 1 µg/mL (≈ 3.14 µM); in [17], 0.5 µg/mL (≈ 1.57 µM); in [18], 16 µg/mL (≈ 50.3 µM); in [19] it was 0.25 µg/mL (≈ 0.785 µM); in data set [20], ≤ 0.031 µg/mL. The minimal inhibitory concentration (MIC) in data set [21] and in data set [23] was 0.062 µg/mL (≈ 0.195 µM) in each case. The “"in vitro" activity compared with nalidixic acid” value in data set [7] and in [13] was “greater "in vitro" activity than nalidixic acid” each time. In [22], the LD50 at 168 h is > 1600 mg/kg.

As for `CNn1cc(C(=O)O)c(=O)c2cc(F)c(-n3cccc3)cc21` [Example 7, 6-fluoro-7-(pyrrol-1-yl)-1-methylamino-4-oxo-1,4-dihydroquinoline-3-carboxylic acid], the minimal inhibitory concentration (MIC) in data set [1] turned out to be 1 µg/mL (≈ 3.32 µM); in [2], 8 µg/mL (≈ 26.6 µM); in data set [3] it was 1 µg/mL (≈ 3.32 µM); in data set [4], 0.5 µg/mL (≈ 1.66 µM); in data set [5] it was 1 µg/mL (≈ 3.32 µM); in data set [6], 1 µg/mL (≈ 3.32 µM). Also, the MIC in data set [8] is 1 µg/mL (≈ 3.32 µM); in [9], 4 µg/mL (≈ 13.3 µM); in [10], 0.125 µg/mL (≈ 0.415 µM); in data set [11], 2 µg/mL (≈ 6.64 µM); in data set [12], 4 µg/mL (≈ 13.3 µM); in data set [14], ≤ 0.062 µg/mL. Also, the MIC in data set [15] was ≤ 0.062 µg/mL; in [16], 1 µg/mL (≈ 3.32 µM); in data set [17], 4 µg/mL (≈ 13.3 µM); in data set [18] it was 16 µg/mL (≈ 53.1 µM); in [19] it was 0.25 µg/mL (≈ 0.83 µM); in [20], 0.125 µg/mL (≈ 0.415 µM). For the same compound, the minimum inhibitory concentration (MIC) in data set [21] and in data set [23] was 0.25 µg/mL (≈ 0.83 µM) each time. Besides, the “"in vitro" activity compared with nalidixic acid” value in [7] and in [13] was “greater "in vitro" activity than nalidixic acid” in each case. Besides, in [22], the LD50 at 168 h was > 1600 mg/kg.
